Experimental data taken from ChEMBL document CHEMBL3507680, “University of Dundee, Gates Library screen for HepG2 cell viability”.

Assay: Human HepG2 cell viability assay in 384 well format
Format: toxicity, cell-based
Parameters: dose 125 nL, time 70.5 hour; cytotoxicity at 70.5 h: concentration not given beside the values
Conditions: HepG2 cells, read-out: Inhibition

Compound | cytotoxicity at 70.5 h
O=C(Nc1cccc(N2CCCC2)c1)C1CCCN1c1nccs1 (stereo unspecified) | -2.18%
Cc1cncc(C2CCCN(C(=O)c3cnco3)C2)n1 (stereo unspecified) | -3.92%
CC(C)(C)c1coc([C@@H]2COCCN2CC2CC2)n1 | -0.839%
O=C(Cc1csc(-c2ccco2)n1)N1CCN(c2nccs2)CC1 | -5.89%
CSc1ccc(CN(C(=O)c2cc[nH]n2)C2CC2)cc1 | -7.21%
CC(=O)N1CCC2(CC1)CC(Oc1ccccc1)CO2 (stereo unspecified) | -7.56%
Cc1cccc(C(=O)N2CCCN(Cc3cscn3)CC2)c1 | -4.03%
CSc1ccc(OC(C)C(=O)Nc2cc(C)n[nH]2)cc1 (stereo unspecified) | -1.12%
CN1CCCCC1c1ncc2c(n1)CCN(Cc1ccc(Cl)c(F)c1)C2 (stereo unspecified) | -3.53%
Cc1cc(=O)n(C)cc1NC(=O)Cc1cccc(F)c1 | -2.92%
Cc1nc(NC(=O)C2(C)CN(C)CCO2)sc1C (stereo unspecified) | -2.07%
O[C@H]1CN(CCCOc2ccccc2F)CC[C@@]12CCCO2 | -2.73%
Cc1ccc(S(=O)(=O)N2CCN(CCC#N)CC2)s1 | 7.61%
CC(C)N(Cc1ccc(Cl)c(Cl)c1)C(=O)Cn1cncn1 | 1.18%
CCc1nc(CSc2nnc(N)n2C2CC2)no1 | -7.26%
Cc1csc(N2CCC(CCN3CCCC3=O)CC2)n1 | -14.3%
COC(=O)NCC(=O)NC1CC(C)(C)Cc2oc(C)cc21 (stereo unspecified) | 1.57%
COc1ccc(C)cc1C(=O)NC1(C#N)CCOCC1 | -2.79%
CCOC(=O)[C@]12CCCN(Cc3cccs3)C[C@H]1CN(C(C)C)C2 | 1.55%
Cc1ccccc1Oc1ncccc1CNS(=O)(=O)N(C)C | -1.73%
CCN(Cc1ccncc1)C1CCCN(Cc2ccc(F)cc2OC)C1 (stereo unspecified) | -1.99%
Cc1ccc(N2CCC3(CCN(C(=O)c4ccccn4)CC3)CC2)nn1 | -5.97%
CCN1CCN(C(=O)c2cnn(-c3ccccc3Cl)c2)CC1 | -8.2%
Cc1nc(C)n(CC2CCCN(Cc3cn4c(C)cccc4n3)C2)n1 (stereo unspecified) | -11.6%

Compound | cytotoxicity at 70.5 h
CN(C)C(=O)c1cnc(-c2ccc3c(c2)OCO3)s1 | 6.77%
CCN(CC)S(=O)(=O)CC(=O)Nc1ccsc1 | -14.5%
Cc1cccnc1NC(=O)C1(n2cnnn2)CCCCC1 | -30.1%
Cc1ccnc(NS(=O)(=O)c2cc(C(N)=O)n(C)c2)c1 | 0.984%
CCc1cnc(NCCS(=O)(=O)CC(C)C)nc1 | 19.7%
CCc1ccccc1NC(=O)c1cccc(N(C)S(C)(=O)=O)c1C | -4.65%
CC(CCN1CCn2nc(CNC(=O)N(C)C)cc2C1)c1ccccc1 (stereo unspecified) | -6.81%
c1cnc(N2CCO[C@H]3[C@H](OCC4CC4)CC[C@@H]32)nc1 | -7.29%
Cc1ccc(C(=O)N2CCc3ncc(Cn4cccn4)n3CC2)o1 | -3.58%
Cc1ccc(NC(=O)Cc2cnc3n(C)c(=O)[nH]c(=O)n23)cc1 | -8.62%
COCC(=O)N(C)Cc1nc(N2CCCC2)ncc1-c1ccncc1 | 13.6%
CC(C)N1CCCC(C(=O)N(C)CCCc2cnn(C)c2)C1 (stereo unspecified) | -2.41%
CN(C)C(=O)CS(=O)(=O)Cc1cc(Cl)c2c(c1)OCO2 | -2.34%
CCN1CCN(C2CCN(Cc3noc(C)n3)CC2)C1=O | 28.4%
COC(=O)CCNC(=O)C1CC(=O)N(C2CCCC2)C1 (stereo unspecified) | 0.402%
CCn1cc(C(=O)NCCN2CCCc3ccccc32)c(C)n1 | -0.0816%
O=C(O)c1cn(CC2CCCN(c3ccc4ccccc4n3)C2)nn1 (stereo unspecified) | -10.4%
Cn1cnnc1S(=O)(=O)Cc1cc(Cl)c2c(c1)OCO2 | 7.74%
O=C(C1CC1)N1CCCCCC1C1CCN(c2ncccn2)CC1 (stereo unspecified) | -9.64%
CN(CC(O)C1CC1)C(=O)Nc1cc(F)cc(Br)c1 (stereo unspecified) | 26.3%
CC1CN(C(=O)c2ccnc(-n3cncn3)c2)c2ccccc2S1 (stereo unspecified) | -0.177%
O=C1NCCN1C1CCN(CCc2cccs2)CC1 | -11.4%
Cc1nn(C)c2c(=O)n(C)c(NCC3CCCO3)nc12 (stereo unspecified) | -3.29%
CCOCCCC(=O)Nc1ccc(OCc2noc(C3CC3)n2)cc1 | 7.14%

Compound | cytotoxicity at 70.5 h
COc1cc(C)c(-c2ccc(F)c3c2OC(CN)C3)cc1C (stereo unspecified) | -0.0935%
N#CCCN(C(=O)CCc1cscn1)c1ccc2c(c1)OCCO2 | 16.5%
O=C(CN1CC(n2cccn2)C1)NCCc1ccc(F)cc1 | -1.33%
O=C(CCc1ccsc1)NCc1ccnc(OC2CCOCC2)c1 | -5.9%
Cn1cc(-c2ncc(C(=O)NCCCn3ccccc3=O)s2)cn1 | -10.1%
CCCN1CC(C(=O)Nc2ccccn2)CC1=O (stereo unspecified) | -5.78%
O=S(=O)(NCCC(O)c1cccs1)c1ccccc1 (stereo unspecified) | -5.21%
CC(=O)N[C@@H]1CN(C(=O)c2cccc(C)c2)C[C@H]1O | -8.6%
CCn1cc(NS(=O)(=O)c2ccc(F)cc2)c(C(=O)NCC(C)C)n1 | -1.23%
CCc1nc(CN2CCCN(c3nccs3)CC2)no1 | 6.55%
CN(C)c1ccc(-c2cccc(-c3ccn(CCCO)n3)c2)nn1 | -3.34%
O[C@]12CCNC[C@H]1CN(c1ccnc3ccccc13)CC2 | 22.4%
COCCN1CCC2(CC1)CN(CCn1cccn1)C(=O)CO2 | 1.22%
Cc1c(C)n(Cc2ccccn2)c2nc3c(c(N)c12)CCCCC3 | 27.5%
CC(NC(=O)c1ccnn1C)c1ccc(OCC2CC2)c(F)c1 (stereo unspecified) | 10.9%
COc1cc(-c2nc3c([nH]2)CCCNC3=O)ccc1OC(C)C | -3.41%
Cc1ccccc1N1CCN(C(=O)c2cnn(C(C)C)c2)C(C)C1 (stereo unspecified) | -4.79%
CN(C)S(=O)(=O)N1CC(c2nc(N)ncc2-c2ccc(F)cc2)C1 | -0.38%
Fc1ccc2[nH]c3c(c2c1)CCN1C(c2ccncc2)N2CCC31CC2 (stereo unspecified) | 22.4%
O=C(NCCc1c[nH]cn1)C1CCCN(Cc2ccco2)C1 (stereo unspecified) | -1.6%
CCN(CC)c1ccc(CNC(=O)c2cnc(C)cn2)cn1 | -4.04%
COCCc1noc(CN2CCC3(CCCO3)CCC2=O)n1 (stereo unspecified) | 15.5%
Cc1cc(C)c(CNC(=O)C(C)Oc2cccc(C#N)c2)c(=O)[nH]1 (stereo unspecified) | -11.6%
Cc1c(CN2CCc3[nH]cnc3C2C(=O)O)[nH]c2ccc(F)cc12 (stereo unspecified) | -20.3%

Compound | cytotoxicity at 70.5 h
COc1ccc(C(=O)NCCCNc2ncccn2)cc1F | 3.94%
COCCN1CCC2(CC1)CC(N1CCOCC1)c1ccc(C)cc12 (stereo unspecified) | -8.53%
Cc1cc(C)n(CC(=O)N2CCCCC2CCc2cccs2)c(=O)n1 (stereo unspecified) | -13.4%
O=C(c1ccc(-n2ccnc2)cc1)N1CCN(c2cnccn2)CC1 | 2.67%
COC(=O)C(C)(C)NC(=O)c1cnc(Cc2ccc(F)cc2)s1 | -2.02%
O=C(NCC(F)(F)F)C1CSCN1S(=O)(=O)c1ccc(F)cc1 (stereo unspecified) | -4.65%
O=C(c1ccco1)N1CC[C@H]2[C@H]1CCN2S(=O)(=O)C1CC1 | -8.4%
Cc1ccc(Br)cc1NC(=O)NCC(O)CO (stereo unspecified) | 3.24%
CC(c1nccs1)N(C)S(=O)(=O)NCc1ccccc1 (stereo unspecified) | 25.4%
CCc1noc(CN(C)CC(c2cccs2)N2CCOCC2)n1 (stereo unspecified) | -1.63%
COc1ccc(NC(=O)N(CC2CCOC2)C2CC2)cn1 (stereo unspecified) | -6.27%
CS(=O)(=O)CCC(=O)NC1(c2cccc(Br)c2)CC1 | -8.28%
CCS(=O)(=O)N1CCOC2(CCCN(c3ncc(F)cn3)C2)C1 (stereo unspecified) | -4.67%
O=C1[C@H]2CN(CC3CC3)C[C@H]2CN1c1ccsc1 | -3.2%
CCOCC1CN(C(=O)c2ccncc2)Cc2nn(C)cc21 (stereo unspecified) | -18%
CCN1CCN(C(=O)c2cccn2Cc2ccccc2)CC1 | -0.982%
CC(C)CNC(=O)Cn1ccc2ccccc21 | -0.252%
COc1ccc(CNC2CCN(c3ccccc3)C2)cc1O (stereo unspecified) | 19.7%
O=C(NCC1CCCO1)c1csc(Cc2ccccc2)n1 (stereo unspecified) | 50.7%
Cc1noc(C)c1C(=O)N1CCCCC1c1cc(C)n2ccnc2n1 (stereo unspecified) | -10.1%
CN(CC(N)=O)CC1(c2ccc(Br)cc2)CC1 | -5.53%
COc1ccc(-c2n[nH]cc2CN(C)Cc2ccoc2)c(F)c1 | -1.92%
CCCC(=O)NC1CCc2c(ccc(=O)n2Cc2csc(C)n2)C1 (stereo unspecified) | -12.5%
OCCn1cc(CN2CCN(CCOc3cccc(F)c3)CC2)cn1 | 1.71%

Compound | cytotoxicity at 70.5 h
CCOC(=O)[C@]12CCCN(Cc3nccs3)C[C@H]1CN(C(C)=O)C2 | -13.3%
COc1ccc(Cl)cc1NCc1cc(C)on1 | -3.4%
CC(C)c1n[nH]c(C2CN(C(=O)Cn3ccccc3=O)CCO2)n1 (stereo unspecified) | -2.65%
COC(=O)CC1CCN(C(=O)c2ccc(C)cc2)CC1 | -4.4%
CNc1nc(CNC(=O)Nc2ccccc2OC(C)C)cs1 | 14%
CCc1nccn1C1CCCN(C(=O)CCc2nccs2)C1 (stereo unspecified) | -15.8%
Cc1ccc2nc(CN(Cc3ccc(C#N)cc3)C(C)C)cc(=O)n2c1 | 20.2%
CCN(Cc1ccc2c(c1)OCO2)C(=O)NCc1nc(C)cs1 | -9.62%
CS(=O)(=O)N1CCC(Oc2ccc(C(=O)N3CCSCC3)cc2Cl)CC1 | 0.994%
O=C(c1ccc(OCC2CC2)nc1)N1CCCC(n2cncn2)C1 (stereo unspecified) | -12.6%
CCOc1ccc(C#N)cc1NC(=O)N1CCC(n2cncn2)CC1 | 5.95%
CCc1ccc(NC(=O)c2cnc(N3CCN(C)CC3)nc2C)cc1 | 36.8%
O=C(c1cc(-c2cn[nH]c2)nc2ccc(F)cc12)N1CCSCC1 | -5.34%
Cn1cccc1C(=O)NC[C@H]1C[C@@H]2CN(C(=O)c3ccno3)C[C@H]2O1 | -9.62%
O=C(CC1CCCC1)NCCn1nc2ccccn2c1=O | -2.13%
CCCc1nnc(NC2CCN(C3CCOCC3)CC2)o1 | -9.47%
COCCC(Cc1cccc(Br)c1)C(=O)O (stereo unspecified) | -5.16%
O=C1N(CCCc2ccccc2)CCCC12CCN(C(CO)CO)C2 (stereo unspecified) | -4.16%
CCc1cc(N2CCC(NCc3ccc(C)o3)CC2)ncn1 | 9.42%
CNC(=O)CN(C)c1nc(-c2ccc(C(N)=O)cc2)nc2c1CCNC2 | -0.358%
